Data on 11 compounds can be found in ChEMBL document CHEMBL1201862, “PubChem BioAssay data set” (2004).

Common to all, as to assay: inhibition of tumour cell growth, NCI panel, 48 h
Test [1] deals with 786-0.
Test [2] deals with OVCAR-3.
In test [3] the test system is SF-539.
The subject of test [4] is SR.
Test [5] relates to UO-31.
The test system of test [6] is NCI/ADR-RES.
Test [7] has as its system EKVX.
For test [8], the system named is SK-MEL-2.
Test [9] relates to Hs-578T.
Test [10] concerns LOX IMVI.
Test [11] deals with RXF 393.
Test [12] deals with SK-MEL-5.
For test [13], the system named is MCF7.
For test [14], the system named is A549.
Test [15] concerns SNB-75.
The subject of test [16] is SN12C.
For test [17], the system named is HL-60.
Test [18] concerns SW-620.
Test [19] concerns HCC 2998.
In test [20] the test system is NCI-H460.

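All cell lines were grown in 96-well plates and treated with compound for 48 hours. Here, GI50 denotes the concentration required for 50% inhibition of growth.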 Activity calls are given as the source filed them. Cut-off read from the data, not from the text of the source: active = GI50 up to about 1.1 µM and inactive = higher.

For `COc1ccc(-c2cc(-c3cc4cc(Br)ccc4nc3Cl)c(C#N)c(N)n2)cc1`, the GI50 was > 12.5 µM (inactive) in test [1]; > 12.5 µM (inactive) in test [2]; > 12.5 µM (inactive) in [3]; 4.28 µM (inactive) in [4]; > 12.5 µM (inactive) in [5]; > 12.5 µM (inactive) in test [6]. Besides, the GI50 in test [7], in test [8], in [9], in test [10], in test [11] and in test [12] was > 12.5 µM (inactive) in each case. The GI50 in [13], in test [14], in test [15], in test [16], in test [17] and in test [18] was > 12.5 µM (inactive) each time.

For `COc1cc2nc(Nc3cccc(Br)c3)nc(Nc3cccc(Br)c3)c2cc1OC`, the GI50 in [1] is 17.3 µM (inactive); in [2], 16.6 µM (inactive); in test [19], 23.6 µM (inactive); in test [5] it was 16 µM (inactive); in test [6] it was 19.6 µM (inactive); in test [7], 19.1 µM (inactive). The GI50 was 18.4 µM (inactive) in test [8]; 19.8 µM (inactive) in [9]; 16.7 µM (inactive) in test [10]; 18.4 µM (inactive) in [11]; 17 µM (inactive) in test [12]; 24.3 µM (inactive) in [20]. Also, the GI50 in [13] was 16.9 µM (inactive); in [14] it was 17.3 µM (inactive); in test [15], 17.3 µM (inactive); in test [16] it was 16.4 µM (inactive); in test [18], 24.2 µM (inactive).

In the case of `COc1ccccc1NC(=S)Nc1cccc(C)n1`, the GI50 is 79.3 µM (inactive) in test [1]; > 100 µM (inactive) in test [2]; > 100 µM (inactive) in test [3]; > 100 µM (inactive) in test [4]; > 100 µM (inactive) in [5]; > 100 µM (inactive) in test [6]. The GI50 is 16.2 µM (inactive) in test [7]; > 100 µM (inactive) in test [8]; 37.2 µM (inactive) in test [9]; > 100 µM (inactive) in test [10]; > 100 µM (inactive) in test [11]; > 100 µM (inactive) in test [12]. Besides, the GI50 in test [20] is > 100 µM (inactive); in test [13], > 100 µM (inactive); in test [14] it was > 100 µM (inactive); in test [15] it was 1.07 µM (active); in test [16], > 100 µM (inactive); in test [17], > 100 µM (inactive). Also, the GI50 in test [18] is > 100 µM (inactive).

In the case of `CC(C)(C)CNCCO`, the GI50 in test [1], in test [2], in test [3], in test [19], in test [5] and in [6] was > 100 µM (inactive) in each case. Moreover, the GI50 in test [7], in test [8], in test [9], in [10], in test [11] and in test [12] was > 100 µM (inactive) throughout. Moreover, the GI50 in [20], in test [13], in test [14], in test [15], in test [16] and in test [17] was > 100 µM (inactive) each time. Moreover, the GI50 in test [18] was > 100 µM (inactive).

For `O=C(/C=C\c1ccc([N+](=O)[O-])cc1)c1ccccc(=O)c1O`, the GI50 in test [1] was 0.769 µM (active); in test [2] it was 2.49 µM (inactive); in [19] it was 1.29 µM (inactive); in [5], 1.02 µM (active); in test [6], 0.429 µM (active); in [7] it was 1.81 µM (inactive). Also, the GI50 is 1.89 µM (inactive) in test [8]; 3.88 µM (inactive) in test [9]; 0.449 µM (active) in test [10]; 0.558 µM (active) in test [12]; 0.518 µM (active) in test [20]; 0.277 µM (active) in [13]. Besides, the GI50 in test [14] is 0.51 µM (active); in test [15], 1.29 µM (inactive); in test [16] it was 4.81 µM (inactive); in test [17] it was 0.538 µM (active); in test [18], 1.3 µM (inactive).

Regarding `C[C@@H]1OC(=O)C[C@H]2CC(=O)N(CCC3CN(C(=O)c4ccccc4)c4ccccc43)C[C@@H]21` (stereo not given in full), the GI50 in test [1], in [2], in [19], in [5], in test [6] and in [7] was > 100 µM (inactive) throughout. Further, the GI50 in test [8], in [9], in [11], in [12], in test [20] and in test [13] was > 100 µM (inactive) in each case. The GI50 in test [14], in test [15] and in [18] was > 100 µM (inactive) in each case.

In the case of `CCOC(=O)Cc1csc2[n+]1C(=O)/C(=C\c1cccc(Cl)c1Cl)S2`, the GI50 was 15.8 µM (inactive) in test [1]; 7.05 µM (inactive) in test [2]; 22.3 µM (inactive) in test [3]; 17.7 µM (inactive) in [19]; 12.7 µM (inactive) in [5]; 16.7 µM (inactive) in test [6]. Also, the GI50 was 17.2 µM (inactive) in test [7]; 10.6 µM (inactive) in test [8]; 29.5 µM (inactive) in [9]; 18.4 µM (inactive) in [10]; 16.7 µM (inactive) in test [11]; 8.93 µM (inactive) in test [12]. The GI50 in test [20] is 14.9 µM (inactive); in test [13], 28.1 µM (inactive); in [14] it was 14.8 µM (inactive); in test [15] it was 23.8 µM (inactive); in test [16], 16.2 µM (inactive); in test [17] it was 19.5 µM (inactive). In test [18], the GI50 is 18.6 µM (inactive).

Consider `CN(C)CCNC(=O)c1cccc(N(C)C(=O)c2ccccc2)c1[N+](=O)[O-]`, for which the GI50 in [1], in [2], in test [3], in [4], in [19] and in test [5] was > 100 µM (inactive) in each case. Moreover, the GI50 in test [6], in test [8], in test [9], in test [12], in test [20] and in [13] was > 100 µM (inactive) in each case. Moreover, the GI50 in test [14] was > 100 µM (inactive); in test [15], 53.6 µM (inactive); in test [16] it was > 10 µM (inactive); in [17], > 100 µM (inactive); in [18] it was > 100 µM (inactive).

With `C/C=C1\CC2C(=O)CCC2C2c3ccccc3OC12` (stereo not given), the GI50 in test [1], in [2], in test [3], in test [4], in [5] and in test [6] was > 100 µM (inactive) throughout. For the same compound, the GI50 in test [7], in [8], in [9], in [10], in test [11] and in test [12] was > 100 µM (inactive) in each case. The GI50 in [20] was > 100 µM (inactive); in test [13] it was > 100 µM (inactive); in [14], > 100 µM (inactive); in [15] it was > 100 µM (inactive); in [16], < 0.01 µM (active); in [17] it was 87.7 µM (inactive). Further, in [18], the GI50 is > 100 µM (inactive).

With `CN(CC(=O)O)c1ncc2c(n1)-c1ccccc1SC2`, the GI50 in test [1] is > 100 µM (inactive); in [3] it was > 100 µM (inactive); in test [4], 92.3 µM (inactive); in test [5], > 100 µM (inactive); in test [6], > 100 µM (inactive); in [7] it was > 100 µM (inactive). Also, the GI50 was > 100 µM (inactive) in test [8]; > 100 µM (inactive) in test [9]; > 100 µM (inactive) in test [10]; > 100 µM (inactive) in test [12]; > 100 µM (inactive) in test [20]; 69.8 µM (inactive) in test [13]. Also, the GI50 in test [14], in [15], in [16], in [17] and in test [18] was > 100 µM (inactive) each time.

For the compound `C=CCSc1nn(CC=C)cc2ncnc1-2`, the GI50 in test [1], in test [2], in test [3], in test [4], in test [5] and in [6] was > 100 µM (inactive) throughout. Further, the GI50 in test [7], in test [8], in [9], in test [11], in test [12] and in test [20] was > 100 µM (inactive) throughout. Also, the GI50 in test [13], in [14], in test [15], in test [16], in test [17] and in test [18] was > 100 µM (inactive) each time.
